Measurements as given in PubChem BioAssay (NCI).
Values joined by “and” are separate entries in the source; they are usually repeats but may differ in a detail not shown here. Identical values can stand only once.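 1) Cells in 96-well plates. 2) Compound, 48 h, 5 concentrations. 3) Linear interpolation between surrounding doses. 4) Unreached endpoint = highest concentration. GI50 is the concentration that inhibits growth by half. TGI is the concentration that stops growth completely.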

What was measured:
Assay in all cases: DTP human tumour cell line panel, 48 h
EKVX NSCLC = tested on: EKVX NSCLC
SK-MEL-28 melanoma = tested on: SK-MEL-28 melanoma
SF-268 CNS = tested on: SF-268 CNS
HOP-92 NSCLC = tested on: HOP-92 NSCLC
UACC-62 melanoma = tested on: UACC-62 melanoma
HCC-2998 colon = tested on: HCC-2998 colon
OVCAR-5 ovarian = tested on: OVCAR-5 ovarian
SK-MEL-2 melanoma = tested on: SK-MEL-2 melanoma
SR leukemia = tested on: SR leukemia
MALME-3M melanoma = tested on: MALME-3M melanoma

Compound	GI50 (EKVX NSCLC) [µM]	TGI (EKVX NSCLC) [µM]	GI50 (SK-MEL-28 melanoma) [µM]	TGI (SK-MEL-28 melanoma) [µM]	GI50 (SF-268 CNS) [µM]	GI50 (HOP-92 NSCLC) [µM]	TGI (HOP-92 NSCLC) [µM]	GI50 (UACC-62 melanoma) [µM]	TGI (UACC-62 melanoma) [µM]	GI50 (HCC-2998 colon) [µM]	TGI (HCC-2998 colon)	TGI (OVCAR-5 ovarian) [µM]	TGI (SK-MEL-2 melanoma) [µM]	TGI (SF-268 CNS) [µM]	TGI (SR leukemia) [µM]	TGI (MALME-3M melanoma) [µM]	GI50 (SR leukemia) [µM]	GI50 (OVCAR-5 ovarian) [µM]	GI50 (MALME-3M melanoma) [µM]	GI50 (SK-MEL-2 melanoma) [µM]
CCOc1cc2c(cc1O)/C(=N\O)C[C@@H]1[C@@H]2CC[C@]2(C)[C@@H](O)CC[C@@H]12	0.0582	> 100	0.0143	> 53.5	0.0884	14.8	> 100	0.00607	28.8	1.63	9.51 µM and > 41.1 µM	> 100	55.6							
Cc1cc(=O)[nH]o1		> 100		> 100			> 100		> 100		> 100 µM	> 100	> 100	> 100						
CCCCCCCCOC(CO)CO				> 100			> 100		> 100		> 100 µM	> 100		> 100	> 100	> 100				
C[C@]12CCc3nonc3C1CC[C@@H]1C2CC[C@]2(C)NC(=O)CCC12 (some centres undefined)		> 100		> 100			> 100		> 100			> 100	> 100	> 100		> 100				
O=[N+]([O-])c1ccc2c(N3CCC(CCCC4CCN(c5ncnc6cc([N+](=O)[O-])ccc56)CC4)CC3)ncnc2c1			> 44.7	> 100	> 53.3	4.89	> 76	> 33.4	> 56.9	> 87.1	> 100 µM	> 100	> 85.3	> 100	> 100	> 92.1	2.5	> 100	> 59.7	> 52.2
O=c1cccccc1NCCCCCCNc1cccccc1=O		> 100		> 100					> 100		> 100 µM	> 100	> 100	> 100		> 100				
CC(=O)c1c(C)n(C)c2c1nnc1ccccc12		50.3		> 100			> 100		> 100		> 100 µM		> 100	> 100		> 100				
C/C1=C/C2=CC(C)C[C@@H]2C(=O)[C@]2(C)C(=O)CC(C)(C)[C@H]2CC1=O (some centres undefined)		> 50					> 50		> 50		> 50 µM	> 50	> 50	> 50		> 50				
c1ccc(-c2cc(C3CO3)c3ccccc3n2)cc1 (centres undefined)		34.1		> 100			39.2		33.7		35.2 µM	40.5	34.6	47.3	45.3					
Cc1noc(C)c1-c1cc(O)cc(C(O)c2ccccc2)c1 (centres undefined)			9.15	> 100	39.3	1.02	72.9			8.55	> 100 µM	> 100	> 100	> 100	> 100	> 100	1.01	31.8	28.9	23.5
COc1ccc2nc3cc(Cl)ccc3c(N3CCN(c4ccnc(N5CCOCC5)n4)CC3)c2c1			58.4	> 100	9.74	11.5	> 100	> 100	> 100	3.86	42.4 µM	> 100	> 100	> 100	> 100	> 100	3.29	7.58	> 100	53.3
O=C1c2ccccc2C(=O)c2c(NCCNCCO)ccc(O)c21		14		11.4			13.4		13.6		17.8 µM	8.33	14.7	13.1		11.7				
O=C1OCCC1C(O)C1c2ccccc2-c2ccccc21 (centres undefined)		> 100		> 100			> 100		> 100			> 100	> 100	> 100	> 100	> 100				
CN(C)CCNC(=O)Cn1cc([N+](=O)[O-])c(=O)c2ccccc21				> 100					> 100		> 100 µM	> 100	> 100	> 100	> 100	> 100				
CC(=O)O[C@]1(C)OC(=O)[C@@H](C)N1[N+](=O)[O-]		> 100		> 100					> 100		> 100 µM	> 100	> 100		> 100	> 100				
CC(C)(C)c1[nH]cnc1/C=c1\[nH]c(=O)/c(=C/c2ccccc2)[nH]c1=O	0.0482	35.5	10.5	28.3	< 0.0123	< 0.0118	9.11	< 0.01	21.2	0.0307	33.1 µM	86.1	30.7	> 70.1		29.8		0.0335	< 0.105	< 0.0108
CC1(C)CCc2cc3c(cc2O1)OCC1c2cc4c(cc2OC31)OCO4 (centres undefined)		> 100					> 100		> 100		> 100 µM	> 100		> 100	> 100	> 100				
Cc1ccc(C)c(NC(=O)NCc2ccc(Cl)cc2)c1		> 100		> 100			63.5		> 100			> 100	> 100	> 100	27.8	> 87.9				
O=c1cc(N2CCNCC2)oc2c(-c3ccccc3)cccc12	19.8	> 100	39.6	> 100	46.3	17.3	> 100	25.2	> 100	18.1	39.8 µM	> 100	> 100	> 100		56.8		> 100	23.6	51.5
